Reference: patent US20230348369A1 (Cytokinetics, Inc., priority 2020, published 2023)
Like-named read-outs stand apart in the source and are kept apart here.

Target: human NAMPT (Homo sapiens, UniProt P43490)
Experiment: Human recombinant enzyme assay (NMN fluorescence biochemical assay, activation of NAMPT)
Description: Compounds described herein were assayed for their ability to stimulate the synthesis of nicotinamide mononucleotide (NMN) by the enzyme NAMPT. The human recombinant enzyme assay measures the activation of the enzyme activity by compounds using recombinant enzyme and substrates in a buffered cell-free system. The assay conditions closely mimic cellular environments. Dose responses were measured using an assay to detect the formation of nicotinamide mono-nucleotide. All experiments were performed in the 384-well format. […] Enzyme reactions were initiated with the addition of 10 μL of a solution containing the substrates. The final assay conditions were as follows: 6 nM human NAMPT, 2.5 mM ATP, 20 μM PRPP and 150 μM nicotinamide in 50 mM HEPES, pH 7.2, 1 mM DTT, 1 mM CHAPS 50 mM NaCl, 100 mM MgCl2. Following an incubation of 60 min at ambient temperature, 10 μL of 20% acetophenone in DMSO was added, followed by 10 μL of 2 M KOH and 40 μL of formic acid. The plates were read for fluorescence (Excitation/Emission=355 nm/460 nm) using an EnVision plate reader after 40 mins of incubation at ambient temperature.

[1] = Table A, human recombinant NAMPT, NMN formation, 60 min
[2] = Table A, human recombinant NAMPT, NMN formation, 60 min, read-out: EC50 Human

Sequence of human NAMPT (P43490 whole entry): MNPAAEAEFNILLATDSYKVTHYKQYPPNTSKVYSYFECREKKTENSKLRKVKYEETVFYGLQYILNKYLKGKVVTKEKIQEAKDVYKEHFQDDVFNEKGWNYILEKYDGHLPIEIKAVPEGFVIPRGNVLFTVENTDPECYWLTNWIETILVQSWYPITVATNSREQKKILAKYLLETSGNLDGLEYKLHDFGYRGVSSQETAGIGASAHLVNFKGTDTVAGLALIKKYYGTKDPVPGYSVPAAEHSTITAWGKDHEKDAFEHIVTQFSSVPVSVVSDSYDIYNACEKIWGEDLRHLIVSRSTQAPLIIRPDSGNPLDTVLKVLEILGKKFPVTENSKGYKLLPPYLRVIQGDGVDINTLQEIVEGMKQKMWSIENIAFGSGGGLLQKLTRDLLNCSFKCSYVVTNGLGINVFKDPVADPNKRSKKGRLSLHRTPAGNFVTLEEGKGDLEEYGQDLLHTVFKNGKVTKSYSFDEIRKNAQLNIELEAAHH

SMILES | AC1.4 Human [1] [µM] | EC50 [2] [µM] | EC50 [µM]
COc1ccc(CNC(=O)NC2CC3(C2)CC(C(=O)NCC(C)(C)c2cccnc2)C3)cc1 (centres unmarked) [Compound 66, 6-(3-(4-methoxybenzyl)ureido)-N-(2-methyl-2-(pyridin-3-yl)propyl)spiro[3.3]heptane-2-carboxamide] | 3.3 | 37.8 | 
COc1ccc(CNC(=O)NC2CC3(CC(CC(=O)N(C)Cc4ccccc4)C3)C2)cc1 (centres unmarked) [Compound 67, N-benzyl-2-(6-(3-(4-methoxybenzyl)ureido)spiro[3.3]heptan-2-yl)-N-methylacetamide] | 2.3 |  | 35.9
COc1ccc(CNC(=O)NC2CC3(C2)CC(C(=O)NCc2ccccc2)C3)cc1 (centres unmarked) [Compound 68, N-benzyl-6-(3-(4-methoxybenzyl)ureido)spiro[3.3]heptane-2-carboxamide] | 5.1 | 45.2 | 
COc1ccc(CNC(=O)NC2CC3(C2)CC(C(=O)NCCc2ccccc2)C3)cc1 (centres unmarked) [Compound 69, 6-(3-(4-methoxybenzyl)ureido)-N-phenethylspiro[3.3]heptane-2-carboxamide] | 4.7 |  | 38.4
COc1ccc(CNC(=O)NC2CC3(C2)CC(C(=O)NC(C)(C)c2ccccc2)C3)cc1 (centres unmarked) [Compound 70, 6-(3-(4-methoxybenzyl)ureido)-N-(2-phenylpropan-2-yl)spiro[3.3]heptane-2-carboxamide] | 3.9 |  | 38.6
COc1ccc(CNC(=O)NC2CC3(C2)CC(C(=O)NCCc2cn[nH]c2)C3)cc1 (centres unmarked) [Compound 75, N-(2-(1H-pyrazol-4-yl)ethyl)-6-(3-(4-methoxybenzyl)ureido)spiro[3.3]heptane-2-carboxamide] | 11.5 | 42 | 
COc1ccc(CNC(=O)NC2CC3(C2)CC(C(=O)NCc2ccc(C#N)cc2F)C3)cc1 (centres unmarked) [Compound 77, N-(4-cyano-2-fluorobenzyl)-6-(3-(4-methoxybenzyl)ureido)spiro[3.3]heptane-2-carboxamide] | 7.2 | 35.1 | 
COc1ccc(CNC(=O)NC2CC3(C2)CC(C(=O)NC2CC(c4ccncc4)C2)C3)cc1 (centres unmarked) [Compound 78, 6-(3-(4-methoxybenzyl)ureido)-N-(3-(pyridin-4-yl)cyclobutyl)spiro[3.3]heptane-2-carboxamide] | 4.4 | 45.2 | 
COc1ccc(CNC(=O)NC2CC3(C2)CC(C(=O)NCC(C)(C)c2ccncc2)C3)cc1 (centres unmarked) [Compound 80, 6-(3-(4-methoxybenzyl)ureido)-N-(2-methyl-2-(pyridin-4-yl)propyl)spiro[3.3]heptane-2-carboxamide] | 2.4 | 45.4 | 
COc1ccc(CNC(=O)N[C@H]2C[C@]3(CCN(C(=O)OC(C)(C)C)C3)C2)cc1 [Compound 81, tert-butyl (2r,4s)-2-(3-(4-methoxybenzyl)ureido)-6-azaspiro[3.4]octane-6-carboxylate] | 12.5 | 37.2 | 
COc1ccc(CNC(=O)N[C@H]2C[C@@]3(CCN(C(=O)OC(C)(C)C)C3)C2)cc1 [Compound 82, tert-butyl (2s,4r)-2-(3-(4-methoxybenzyl)ureido)-6-azaspiro[3.4]octane-6-carboxylate] | 10.7 | 52.3 | 
COc1ccc(CNC(=O)NC2CC3(C2)CC(C(=O)Nc2ccccc2)C3)cc1 (centres unmarked) [Compound 86, 6-(3-(4-methoxybenzyl)ureido)-N-phenylspiro[3.3]heptane-2-carboxamide] | 4.7 | 49.4 | 
COc1ccc(CNC(=O)NC2CC3(C2)CC(C(=O)NCc2ccnc(OC(F)F)c2)C3)cc1 (centres unmarked) [Compound 88, N-((2-(difluoromethoxy)pyridin-4-yl)methyl)-6-(3-(4-methoxybenzyl)ureido)spiro[3.3]heptane-2-carboxamide] | 16.3 | 48.8 | 
COc1ccc(CNC(=O)NC2CC3(C2)CC(C(=O)Nc2ccc4nncn4c2)C3)cc1 (centres unmarked) [Compound 89, N-([1,2,4]triazolo[4,3-a]pyridin-6-yl)-6-(3-(4-methoxybenzyl)ureido)spiro[3.3]heptane-2-carboxamide] | 10.3 | 33.7 | 
COc1ccc(CNC(=O)NC2CC3(C2)CC(C(=O)NC2CC(CO)c4ccccc42)C3)cc1 (centres unmarked) [Compound 93, N-(3-(hydroxymethyl)-2,3-dihydro-1H-inden-1-yl)-6-(3-(4-methoxybenzyl)ureido)spiro[3.3]heptane-2-carboxamide] | 6.3 | 34.8 | 
COc1ccc(CNC(=O)NC2CC3(C2)CC(C(=O)NC2Cc4ccccc4C2O)C3)cc1 (centres unmarked) [Compound 94, N-(1-hydroxy-2,3-dihydro-1H-inden-2-yl)-6-(3-(4-methoxybenzyl)ureido)spiro[3.3]heptane-2-carboxamide] | 11.0 | 38.7 | 
COc1ccc(CNC(=O)NC2CC3(C2)CC(C(=O)N2CCCc4ccc(F)c(F)c42)C3)cc1 (centres unmarked) [Compound 102] | 8.0 | 33.3 | 
COc1ccc(CNC(=O)NC2CC3(C2)CC(C(=O)N2CCCc4cc(OC(F)(F)F)ccc42)C3)cc1 (centres unmarked) [Compound 107, 1-(4-methoxybenzyl)-3-(6-(6-(trifluoromethoxy)-1,2,3,4-tetrahydroquinoline-1-carbonyl)spiro[3.3]heptan-2-yl)urea] | 2.9 | 48.8 | 
COc1ccc(CNC(=O)NC2CC3(C2)CC(C(=O)N2CCN(CC4CC4)CC2)C3)cc1 (centres unmarked) [Compound 112, 1-(6-(4-(cyclopropylmethyl)piperazine-1-carbonyl)spiro[3.3]heptan-2-yl)-3-(4-methoxybenzyl)urea] | 3.0 | 46.9 | 

More lines, main results first:

AC1.4 Human [1] [µM] | EC50 [2] [µM] | SMILES | EC50 [µM]
3.7 | 13 | COc1ccc(CNC(=O)NC2CC3(C2)CC(C(=O)N[C@@H]2CCc4ccccc42)C3)cc1 (stereo partly drawn) [Compound 91, (R)-N-(2,3-dihydro-1H-inden-1-yl)-6-(3-(4-methoxybenzyl)ureido)spiro[3.3]heptane-2-carboxamide] | 
2.9 | 13.5 | COc1ccc(CNC(=O)NC2CC3(C2)CC(C(=O)N[C@H]2CCc4ccccc42)C3)cc1 (stereo partly drawn) [Compound 92, (S)-N-(2,3-dihydro-1H-inden-1-yl)-6-(3-(4-methoxybenzyl)ureido)spiro[3.3]heptane-2-carboxamide] | 
4.3 | 13.3 | COc1ccc(CNC(=O)NC2CC3(C2)CC(C(=O)NC2Cc4ccccc4C2)C3)cc1 (centres unmarked) [Compound 95, N-(2,3-dihydro-1H-inden-2-yl)-6-(3-(4-methoxybenzyl)ureido)spiro[3.3]heptane-2-carboxamide] | 
2.6 | 4.1 | COc1ccc(CNC(=O)NC2CC3(C2)CC(C(=O)N[C@@H]2CCc4ccccc4C2)C3)cc1 (stereo partly drawn) [Compound 96, (R)-6-(3-(4-methoxybenzyl)ureido)-N-(1,2,3,4-tetrahydronaphthalen-2-yl)spiro[3.3]heptane-2-carboxamide] | 
0.2 | 2.7 | COc1ccc(CNC(=O)NC2CC3(C2)CC(C(=O)N2CCCc4cc(F)ccc42)C3)cc1 (centres unmarked) [Compound 101, 1-(6-(6-fluoro-1,2,3,4-tetrahydroquinoline-1-carbonyl)spiro[3.3]heptan-2-yl)-3-(4-methoxybenzyl)urea] | 
0.3 | 7 | COc1ccc(CNC(=O)NC2CC3(C2)CC(C(=O)N2CCCc4cc(OC(F)F)ccc42)C3)cc1 (centres unmarked) [Compound 103, 1-(6-(6-(difluoromethoxy)-1,2,3,4-tetrahydroquinoline-1-carbonyl)spiro[3.3]heptan-2-yl)-3-(4-methoxybenzyl)urea] | 
0.5 | 10.7 | COc1ccc(CNC(=O)NC2CC3(C2)CC(C(=O)N2CCCc4cc(C(F)(F)F)ccc42)C3)cc1 (centres unmarked) [Compound 104, 1-(4-methoxybenzyl)-3-(6-(6-(trifluoromethyl)-1,2,3,4-tetrahydroquinoline-1-carbonyl)spiro[3.3]heptan-2-yl)urea] | 
0.1 | 2.2 | COc1ccc(CNC(=O)NC2CC3(C2)CC(C(=O)N2CCCc4c(F)cccc42)C3)cc1 (centres unmarked) [Compound 105, 1-(6-(5-fluoro-1,2,3,4-tetrahydroquinoline-1-carbonyl)spiro[3.3]heptan-2-yl)-3-(4-methoxybenzyl)urea] | 
0.1 | 1.8 | COc1ccc(CNC(=O)NC2CC3(C2)CC(C(=O)N2CCCc4ccc(F)cc42)C3)cc1 (centres unmarked) [Compound 106, 1-(6-(7-fluoro-1,2,3,4-tetrahydroquinoline-1-carbonyl)spiro[3.3]heptan-2-yl)-3-(4-methoxybenzyl)urea] | 
0.1 | 1.4 | COc1ccc(CNC(=O)NC2CC3(C2)CC(C(=O)N2CCCc4ccc(C)cc42)C3)cc1 (centres unmarked) [Compound 108, 1-(4-methoxybenzyl)-3-(6-(7-methyl-1,2,3,4-tetrahydroquinoline-1-carbonyl)spiro[3.3]heptan-2-yl)urea] | 
3.5 | 10.2 | CC(C)(O)CN1CCN(C(=O)C2CC3(CC(NC(=O)NCc4ccc(F)cc4)C3)C2)CC1 (centres unmarked) [Compound 109, 1-(4-fluorobenzyl)-3-(6-(4-(2-hydroxy-2-methylpropyl)piperazine-1-carbonyl)spiro[3.3]heptan-2-yl)urea] | 
1.0 | 26.8 | COc1ccc(CNC(=O)NC2CC3(C2)CC(C(=O)N2CCN(C4COC4)CC2)C3)cc1 (centres unmarked) [Compound 111, 1-(4-methoxybenzyl)-3-(6-(4-(oxetan-3-yl)piperazine-1-carbonyl)spiro[3.3]heptan-2-yl)urea] | 
